Earlier results as cited in patent US20220249506A1, “Meloxicam-Containing Granulated Product” (SSP Co., Ltd., priority 2019, published 2022).

Conditions: low pH range of pH 5.0 or less

Cc1cnc(NC(=O)C2=C(O)c3ccccc3S(=O)(=O)N2C)s1 [meloxicam]
Solubility in water: almost insoluble in water
